Results taken from PubChem BioAssay (NCI).
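A five-concentration, 48-hour dose response in 96-well plates underlies each endpoint, interpolated linearly between surrounding concentrations. Definition used: TGI = concentration required for complete inhibition of growth.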

What was measured:
Assay in all cases: growth of human tumour cells (NCI), 48 h
CCRF-CEM leukemia = system: CCRF-CEM leukemia
HL-60(TB) leukemia = system: HL-60(TB) leukemia
HS 578T breast = system: HS 578T breast
HT29 colon = system: HT29 colon
KM12 colon = system: KM12 colon
LOX IMVI melanoma = system: LOX IMVI melanoma
M14 melanoma = system: M14 melanoma
MDA-MB-231 breast = system: MDA-MB-231 breast
RXF 393 renal = system: RXF 393 renal
U251 CNS = system: U251 CNS

## CN1CCc2c([nH]c3ccccc23)C1
CCRF-CEM leukemia
  TGI: > 100 µM
HL-60(TB) leukemia
  TGI: > 100 µM
HS 578T breast
  TGI: > 100 µM
HT29 colon
  TGI: > 100 µM
KM12 colon
  TGI: > 100 µM
LOX IMVI melanoma
  TGI: > 100 µM
M14 melanoma
  TGI: > 100 µM
MDA-MB-231 breast
  TGI: > 100 µM
RXF 393 renal
  TGI: > 100 µM
U251 CNS
  TGI: > 100 µM

## CN(C)c1ccc(/C=c2/c3ccccc3n3c2c2c([n+]3C)CCCC2)cc1
CCRF-CEM leukemia
  TGI: 5.17 µM
HL-60(TB) leukemia
  TGI: 0.363 µM
HS 578T breast
  TGI: 7.21 µM
HT29 colon
  TGI: 1.61 µM
KM12 colon
  TGI: 0.539 µM
LOX IMVI melanoma
  TGI: 1.39 µM
M14 melanoma
  TGI: 1.5 µM
MDA-MB-231 breast
  TGI: 2.79 µM
RXF 393 renal
  TGI: 0.616 µM
U251 CNS
  TGI: 2.3 µM

## C=CCc1cccc2cc(C(=O)NCc3ccccc3)c(=N)oc12
CCRF-CEM leukemia
  TGI: > 100 µM
HL-60(TB) leukemia
  TGI: > 100 µM
HS 578T breast
  TGI: 63.8 µM
HT29 colon
  TGI: > 100 µM
KM12 colon
  TGI: > 100 µM
LOX IMVI melanoma
  TGI: > 100 µM
M14 melanoma
  TGI: > 100 µM
MDA-MB-231 breast
  TGI: > 100 µM
RXF 393 renal
  TGI: > 100 µM
U251 CNS
  TGI: > 100 µM

## O=[N+]([O-])c1ccc(CN(CCCl)OCCCl)cc1
CCRF-CEM leukemia
  TGI: > 100 µM
HL-60(TB) leukemia
  TGI: > 100 µM
HS 578T breast
  TGI: > 100 µM
HT29 colon
  TGI: > 100 µM
KM12 colon
  TGI: > 100 µM
LOX IMVI melanoma
  TGI: > 100 µM
M14 melanoma
  TGI: > 100 µM
MDA-MB-231 breast
  TGI: > 100 µM
RXF 393 renal
  TGI: > 100 µM
U251 CNS
  TGI: > 100 µM
